This passage reports Ki and Activity results from ChEMBL document CHEMBL6074668 (J Med Chem, 2024).

Structures are written as SMILES. Activity calls are given as the source filed them. The rule behind the calls is not given here.

Test [1] addresses T1, Alpha-1D adrenergic receptor (Homo sapiens, UniProt P25100).
T1 sequence (P25100 whole entry): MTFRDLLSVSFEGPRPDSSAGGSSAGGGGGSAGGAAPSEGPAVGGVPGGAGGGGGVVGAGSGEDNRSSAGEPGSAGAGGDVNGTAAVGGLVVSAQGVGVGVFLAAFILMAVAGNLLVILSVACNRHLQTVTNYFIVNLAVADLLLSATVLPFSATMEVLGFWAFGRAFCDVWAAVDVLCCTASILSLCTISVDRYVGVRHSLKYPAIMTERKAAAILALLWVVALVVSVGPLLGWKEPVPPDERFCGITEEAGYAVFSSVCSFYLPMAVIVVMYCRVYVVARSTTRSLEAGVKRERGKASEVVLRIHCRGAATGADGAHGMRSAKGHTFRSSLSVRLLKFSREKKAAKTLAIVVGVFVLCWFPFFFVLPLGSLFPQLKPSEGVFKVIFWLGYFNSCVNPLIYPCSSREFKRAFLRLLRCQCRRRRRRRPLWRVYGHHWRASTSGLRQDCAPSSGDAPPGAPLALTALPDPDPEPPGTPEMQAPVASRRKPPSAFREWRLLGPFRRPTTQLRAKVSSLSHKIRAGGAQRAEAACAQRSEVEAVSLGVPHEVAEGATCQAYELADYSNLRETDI
Briefly: Binding affinity to alpha1D adrenergic receptor (unknown origin) by radioligand displacement assay. On the technique in general: Loss of bound radioactivity is the signal in a displacement assay; it reports binding, not function.

Test [2] has as its target 5-hydroxytryptamine receptor 7 (Homo sapiens, UniProt P34969). The experiment in a line: Binding affinity to 5HT7A receptor (unknown origin) by radioligand displacement assay.
The target of test [3] is 5-hydroxytryptamine receptor 2B (Homo sapiens, UniProt P41595). The experiment in a line: Binding affinity to 5HT2B receptor (unknown origin) by radioligand displacement assay.
Sequence of 5-hydroxytryptamine receptor 2B (P41595 whole entry): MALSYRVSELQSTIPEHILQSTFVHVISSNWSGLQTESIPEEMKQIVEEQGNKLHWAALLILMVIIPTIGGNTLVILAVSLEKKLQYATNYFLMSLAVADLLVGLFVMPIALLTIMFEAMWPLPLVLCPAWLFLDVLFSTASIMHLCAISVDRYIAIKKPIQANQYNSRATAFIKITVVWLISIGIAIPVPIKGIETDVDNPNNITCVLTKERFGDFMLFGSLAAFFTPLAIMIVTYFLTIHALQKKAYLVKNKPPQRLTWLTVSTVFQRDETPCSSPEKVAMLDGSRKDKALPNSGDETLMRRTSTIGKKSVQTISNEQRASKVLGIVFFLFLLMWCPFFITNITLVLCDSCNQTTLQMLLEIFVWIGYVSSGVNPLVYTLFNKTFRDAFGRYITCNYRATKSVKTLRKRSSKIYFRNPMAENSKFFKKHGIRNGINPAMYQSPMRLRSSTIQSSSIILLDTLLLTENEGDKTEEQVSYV
Test [4] has as its target 5-hydroxytryptamine receptor 2A (Homo sapiens, UniProt P28223).
Description: Binding affinity to 5HT2A receptor (unknown origin) by radioligand displacement assay
Test [5] in a line: Binding affinity to Sigma2 opioid receptor (unknown origin) by radioligand displacement assay. Set-up: species or system Homo sapiens.
The target of test [6] is Mu-type opioid receptor (Homo sapiens, UniProt P35372). Briefly: Displacement of [3H]DAMGO from mu opioid receptor (unknown origin) expressed in CHO cell membrane by competitive radioligand binding assay. It is filed as cell membranes.
Sequence of Mu-type opioid receptor (P35372 whole entry): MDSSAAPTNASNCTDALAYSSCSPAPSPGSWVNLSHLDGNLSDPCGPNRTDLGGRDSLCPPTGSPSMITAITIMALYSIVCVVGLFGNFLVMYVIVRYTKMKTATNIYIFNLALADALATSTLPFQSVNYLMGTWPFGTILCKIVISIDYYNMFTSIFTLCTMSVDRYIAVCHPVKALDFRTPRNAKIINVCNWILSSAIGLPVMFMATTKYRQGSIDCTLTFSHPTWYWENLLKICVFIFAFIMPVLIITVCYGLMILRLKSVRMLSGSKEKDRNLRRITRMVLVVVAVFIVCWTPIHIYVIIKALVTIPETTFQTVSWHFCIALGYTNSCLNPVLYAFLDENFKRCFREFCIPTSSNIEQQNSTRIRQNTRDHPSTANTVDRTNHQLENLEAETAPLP
Test [7] concerns the target T2, 5-hydroxytryptamine receptor 3A (Homo sapiens, UniProt P46098).
T2 sequence (P46098 whole entry): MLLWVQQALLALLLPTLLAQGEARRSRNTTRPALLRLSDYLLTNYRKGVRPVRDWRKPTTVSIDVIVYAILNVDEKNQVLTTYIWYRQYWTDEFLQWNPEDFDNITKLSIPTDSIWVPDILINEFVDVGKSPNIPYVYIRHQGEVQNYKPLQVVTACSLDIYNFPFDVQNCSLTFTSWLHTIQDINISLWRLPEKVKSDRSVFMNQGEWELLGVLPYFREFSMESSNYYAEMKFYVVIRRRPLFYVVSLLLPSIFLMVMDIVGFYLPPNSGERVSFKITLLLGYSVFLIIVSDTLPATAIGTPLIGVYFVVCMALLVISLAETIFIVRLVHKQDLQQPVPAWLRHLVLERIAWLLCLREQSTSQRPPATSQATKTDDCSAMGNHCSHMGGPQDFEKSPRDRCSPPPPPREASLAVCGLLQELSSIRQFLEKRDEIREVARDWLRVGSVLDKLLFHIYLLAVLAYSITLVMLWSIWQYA
The experiment in a line: Binding affinity to 5HT3 receptor (unknown origin) by radioligand displacement assay.

Test [8] deals with T3, Alpha-2C adrenergic receptor (Homo sapiens, UniProt P18825).
T3 sequence (P18825 whole entry): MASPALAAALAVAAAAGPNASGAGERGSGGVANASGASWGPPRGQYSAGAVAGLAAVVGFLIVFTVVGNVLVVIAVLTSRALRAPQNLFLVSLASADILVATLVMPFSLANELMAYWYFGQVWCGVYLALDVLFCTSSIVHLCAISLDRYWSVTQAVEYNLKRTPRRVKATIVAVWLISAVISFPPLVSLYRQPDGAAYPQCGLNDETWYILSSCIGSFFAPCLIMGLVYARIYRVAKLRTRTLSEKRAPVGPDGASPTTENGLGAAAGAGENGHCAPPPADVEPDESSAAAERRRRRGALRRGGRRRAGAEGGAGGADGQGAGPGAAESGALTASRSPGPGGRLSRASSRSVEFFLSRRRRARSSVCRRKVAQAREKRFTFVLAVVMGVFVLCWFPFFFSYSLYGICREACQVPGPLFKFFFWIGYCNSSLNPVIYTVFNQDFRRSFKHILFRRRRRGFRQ
Briefly: Binding affinity to alpha2C adrenergic receptor (unknown origin) by radioligand displacement assay.

Test [9] addresses T4, Alpha-1B adrenergic receptor (Homo sapiens, UniProt P35368).
T4 sequence (P35368 whole entry): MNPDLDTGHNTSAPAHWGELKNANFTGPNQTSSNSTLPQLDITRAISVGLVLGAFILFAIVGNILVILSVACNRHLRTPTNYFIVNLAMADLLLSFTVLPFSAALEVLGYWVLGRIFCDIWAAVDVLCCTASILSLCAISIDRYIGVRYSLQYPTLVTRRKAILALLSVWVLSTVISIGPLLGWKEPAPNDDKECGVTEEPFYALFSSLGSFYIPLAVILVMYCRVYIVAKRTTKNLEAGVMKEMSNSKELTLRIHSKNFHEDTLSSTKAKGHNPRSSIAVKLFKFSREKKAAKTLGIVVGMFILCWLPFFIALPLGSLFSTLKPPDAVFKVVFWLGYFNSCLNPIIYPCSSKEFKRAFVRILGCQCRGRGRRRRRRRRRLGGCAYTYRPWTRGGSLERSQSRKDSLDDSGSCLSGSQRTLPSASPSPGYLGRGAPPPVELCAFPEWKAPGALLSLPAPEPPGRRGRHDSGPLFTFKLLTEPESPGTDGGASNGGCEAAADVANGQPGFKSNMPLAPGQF
The experiment in a line: Binding affinity to alpha1B adrenergic receptor (unknown origin) by radioligand displacement assay.

In test [10] the target is Atypical chemokine receptor 3 (Homo sapiens) (UniProt P25106). The experiment in a line: Agonist activity at CXCR7 receptor (unknown origin) assessed as beta arrestin2 recruitment at >=3 uM by PRESTO-Tango assay. It is filed as functional. As to conditions: filed as agonist. (Recruitment of arrestin is a read-out of receptor activation apart from second messengers.)
Sequence of Atypical chemokine receptor 3 (Homo sapiens) (P25106 whole entry): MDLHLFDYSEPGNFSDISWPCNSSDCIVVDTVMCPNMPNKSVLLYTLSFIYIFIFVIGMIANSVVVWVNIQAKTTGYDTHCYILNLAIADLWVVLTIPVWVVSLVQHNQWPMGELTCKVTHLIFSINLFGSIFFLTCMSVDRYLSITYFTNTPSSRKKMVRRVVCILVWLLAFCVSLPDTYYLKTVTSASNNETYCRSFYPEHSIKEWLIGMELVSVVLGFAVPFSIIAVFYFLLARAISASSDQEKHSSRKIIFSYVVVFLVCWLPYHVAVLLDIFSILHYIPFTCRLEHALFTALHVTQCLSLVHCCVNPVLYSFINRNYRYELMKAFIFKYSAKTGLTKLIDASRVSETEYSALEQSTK
The target in test [11] is Voltage-gated inwardly rectifying potassium channel KCNH2 (Homo sapiens, UniProt Q12809). The experiment in a line: Binding affinity to hERG by radioligand displacement assay. In kind it is toxicity. For orientation: Block of hERG is tested as a sign of cardiac risk.
Sequence of Voltage-gated inwardly rectifying potassium channel KCNH2 (Q12809 whole entry): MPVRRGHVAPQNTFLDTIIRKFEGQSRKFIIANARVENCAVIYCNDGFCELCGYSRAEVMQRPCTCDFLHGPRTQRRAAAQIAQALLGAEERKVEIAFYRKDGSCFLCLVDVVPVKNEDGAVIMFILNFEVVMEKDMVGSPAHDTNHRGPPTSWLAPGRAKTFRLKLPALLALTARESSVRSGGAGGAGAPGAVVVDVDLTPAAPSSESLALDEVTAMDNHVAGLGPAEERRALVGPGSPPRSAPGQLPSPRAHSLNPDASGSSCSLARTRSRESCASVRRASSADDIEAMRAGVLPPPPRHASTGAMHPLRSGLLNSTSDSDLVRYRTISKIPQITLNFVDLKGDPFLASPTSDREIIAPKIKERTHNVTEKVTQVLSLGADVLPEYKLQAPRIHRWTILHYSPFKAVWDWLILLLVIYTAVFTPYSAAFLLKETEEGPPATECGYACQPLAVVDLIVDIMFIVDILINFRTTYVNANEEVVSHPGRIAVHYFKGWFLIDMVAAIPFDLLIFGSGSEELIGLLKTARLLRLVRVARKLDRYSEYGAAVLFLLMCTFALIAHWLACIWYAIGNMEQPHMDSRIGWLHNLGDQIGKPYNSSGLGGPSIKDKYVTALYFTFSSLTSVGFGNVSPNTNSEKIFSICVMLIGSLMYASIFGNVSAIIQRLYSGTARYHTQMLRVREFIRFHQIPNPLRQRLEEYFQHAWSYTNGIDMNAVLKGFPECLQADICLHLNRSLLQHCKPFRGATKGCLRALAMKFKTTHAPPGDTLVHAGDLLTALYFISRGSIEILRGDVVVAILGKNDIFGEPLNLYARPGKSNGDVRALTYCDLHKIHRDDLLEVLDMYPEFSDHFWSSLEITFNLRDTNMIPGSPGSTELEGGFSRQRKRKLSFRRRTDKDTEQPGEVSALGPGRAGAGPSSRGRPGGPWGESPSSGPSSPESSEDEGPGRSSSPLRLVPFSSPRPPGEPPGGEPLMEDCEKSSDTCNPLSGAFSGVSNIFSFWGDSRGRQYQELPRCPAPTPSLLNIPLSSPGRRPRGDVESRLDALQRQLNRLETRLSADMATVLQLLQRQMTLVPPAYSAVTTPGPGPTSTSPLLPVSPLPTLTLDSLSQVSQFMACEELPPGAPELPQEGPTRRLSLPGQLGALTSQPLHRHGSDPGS

Usually Ki stands for the equilibrium dissociation constant of an inhibitor or competing ligand from its target.

Sequence of 5-hydroxytryptamine receptor 7 (P34969 whole entry): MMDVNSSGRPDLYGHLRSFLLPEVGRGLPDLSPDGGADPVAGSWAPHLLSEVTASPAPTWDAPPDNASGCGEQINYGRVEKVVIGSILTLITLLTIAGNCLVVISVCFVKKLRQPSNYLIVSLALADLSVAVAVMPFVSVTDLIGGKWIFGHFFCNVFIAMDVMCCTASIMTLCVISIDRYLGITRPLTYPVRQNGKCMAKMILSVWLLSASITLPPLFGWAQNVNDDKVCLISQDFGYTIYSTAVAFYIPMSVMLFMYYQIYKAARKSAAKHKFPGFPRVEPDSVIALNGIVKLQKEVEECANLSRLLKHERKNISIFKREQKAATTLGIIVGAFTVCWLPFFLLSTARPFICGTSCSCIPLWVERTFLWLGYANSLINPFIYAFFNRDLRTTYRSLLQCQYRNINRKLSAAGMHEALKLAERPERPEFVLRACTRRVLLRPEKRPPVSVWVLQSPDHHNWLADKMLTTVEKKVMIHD
Sequence of 5-hydroxytryptamine receptor 2A (P28223 whole entry): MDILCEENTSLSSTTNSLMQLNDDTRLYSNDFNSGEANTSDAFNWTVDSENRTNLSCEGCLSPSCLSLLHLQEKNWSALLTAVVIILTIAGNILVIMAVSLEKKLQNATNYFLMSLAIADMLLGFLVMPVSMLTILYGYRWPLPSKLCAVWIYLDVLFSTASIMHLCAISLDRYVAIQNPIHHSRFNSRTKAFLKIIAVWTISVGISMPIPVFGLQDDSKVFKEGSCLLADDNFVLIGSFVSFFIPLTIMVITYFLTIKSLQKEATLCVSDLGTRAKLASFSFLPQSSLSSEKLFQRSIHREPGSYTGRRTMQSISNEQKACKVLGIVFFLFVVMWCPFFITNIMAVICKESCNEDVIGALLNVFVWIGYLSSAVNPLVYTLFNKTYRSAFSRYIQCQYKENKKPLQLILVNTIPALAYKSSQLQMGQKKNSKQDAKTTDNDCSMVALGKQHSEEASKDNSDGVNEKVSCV

For `C/C=C1/CN2CC[C@]34C(=C(C(=O)OC)[C@H]1C[C@H]23)Nc1ccc(I)cc14`, the Ki stood at 1140 nM in [1]; 1380 nM in test [2]; 767 nM in test [3]; 2310 nM in test [4]; 2220 nM in test [5]; 3600 nM in test [6]. For the same compound, the Ki in test [7] stood at 384 nM; in test [8], 2860 nM; in test [9], 2020 nM; in test [11], 1100 nM. Besides, the Activity entry in [10] was “Active; Weak Activity Compared To Vuf11207”.
